Source: patent US5366983A, “Use of quaternary ammonium compounds to remove salmonella contamination from meat products” (The Board of Trustees of The University of Arkansas, priority 1992, dated 1994)
Values joined by “and” are separate entries in the source; they are usually repeats but may differ in a detail not shown here. Equal entries are not always repeated. Where two headings read alike, the source gives them in different places.

Assays:
[1] = tested on: Escherichia coli ATCC 25922; conditions: E. coli; cited from earlier work
[2] = tested on: Staphylococcus aureus ATCC 29213; conditions: S. aureus; cited from earlier work
[3] = tested on: Salmonella typhimurium on chicken skin; experiment: Effect of surfactants on Salmonella attached to chicken skin, drumsticks (Tables F1-F4); conditions: 25° C.
[4] = tested on: Salmonella typhimurium ATCC 14028 attached to human buccal epithelial cells; format: cell-based; conditions: Table A-1
[5] = tested on: Salmonella typhimurium ATCC 14028; experiment: Minimum growth inhibitory concentration, macrodilution; format: cell-based; conditions: Mueler Hinton broth, macrodilution (NCCLS)
Protocol: Minimum growth inhibitory concentrations (MICs) of quaternary ammonium compounds and Na2 -EDTA for Salmonella were determined using Mueler Hinton broth (BBL Microbiology system, Cockeysville, Md.) and by the macrodilution method established by the National Committee for Clinical Laboratory Standards (NCCLS). Escherichia coli ATCC 25922 and Staphylococcus aureus ATCC 29213 were included in each assay as reference strains.

[6] = tested on: Salmonella typhimurium ATCC 14028 attached to human buccal epithelial cells; experiment: microbe, parasite or virus in culture; format: cell-based; conditions: for adherence, mean value of attached bacteria: Table A-3; for EC50: read-out: EC50 (±SD), detachment
Protocol: Additional studies on the detachment of Salmonella typhimurium from human buccal epithelial cells were conducted.
S. typhimurium ATCC 14028 was grown in nutrient broth (BBL Microbiology system, Cockeysville, Md.) for 16 hours at 37° C. The cells were centrifuged and washed twice with 0.008 M phosphate buffered saline (PBS, at pH 7.2) at 4500 rpm for 10 minutes. The last suspension was diluted in PBS to obtain a cell concentration 0.5 to 1×10^9 cells/ml using spectrophotometric measurement. Human epithelial cells were obtained by swabbing the buccal surface of a healthy, nonsmoking donor. […] The number of living cells was estimated and the suspension was diluted to 0.5 to 1×10^5 cells/ml.
The suspension of the human buccal cells was mixed with an equal volume of the bacterial suspension (3.0 ml), or PBS (0.8 ml) in 10 ml Erlenmeyer flasks. Contact was allowed for 1.5 hours at 35° C. under agitation. After incubation, 1.0 ml of each suspension was transferred into an Eppendorff vial, centrifuged at 3000 rpm for 10 minutes, and washed with PBS. The cells were treated with 1.0 ml PBS or 1.0 ml of the test chemical solution. Treatment was performed by suspending, gently vortexing, and centrifuging at 1500 rpm for 10 minutes. After the treatment, the cells were washed and placed on microscopic slides for examination.
EC50 represents the inverse measurement of the potency of a compound. EC50 values were determined by a nonlinear regression of the detachment effect versus the cationic surfactant concentration data from Table A-3.

[7] = tested on: Salmonella typhimurium ATCC 14028; experiment: Effect on viability of Salmonella in suspension (Tables D-1 to D-3); format: cell-based; conditions: for bacterial viability: Table D-1; for EC50: Salmonella enterica, read-out: EC50 (±SD), effect on viability in suspension
Method in brief: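 Bactericidal activity against Salmonella measured in suspension; EC50 derived by nonlinear regression of kill versus molar concentration. Na2-EDTA and EGTA dissolved and diluted in 0.04 M PPB; EGTA heated 15 minutes at 80° C., adjusted to pH 7.0 with NaOH, filter-sterilized.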

[8] = Salmonella enterica, Epithelial cell

Compound	Enrichment, chicken legs out of ten ([3]; 0.1%)	Rinse H2O ([3]; 0.1%)	Surfactant Solution ([3]; 0.1%) [CFU/ml]	Swabs, chicken legs producing the notated number of colonies ([3]; 0.1%)	Swabs, colonies ([3]; 0.1%)	Wash H2O, colonies ([3]; 0.1%)	Enrichment, chicken legs out of ten ([3]; 1.0%)	Rinse H2O ([3]; 1.0%) [CFU/ml]	Surfactant Solution ([3]; 1.0%) [CFU/ml]	Swabs, chicken legs producing the notated number of colonies ([3]; 1.0%)	Wash H2O, colonies ([3]; 1.0%) [CFU/ml]	Enrichment, chicken legs out of ten ([3]; .01%)	Rinse H2O ([3]; .01%)	Surfactant Solution ([3]; .01%)	Swabs, chicken legs producing the notated number of colonies ([3]; .01%)	Swabs, colonies ([3]; .01%)	Wash H2O, chicken legs producing the notated number of colonies ([3]; .01%)	Wash H2O, colonies ([3]; .01%)	adherence, mean value of attached bacteria ([4]; 10 ug/ml)	adherence, mean value of attached bacteria ([4]; 25 ug/ml)	also measured
CC1(C)S[C@@H]2[C@H](NC(=O)[C@H](N)c3ccccc3)C(=O)N2[C@H]1C(=O)O [ampicillin]																					acceptable MIC by NCCLS [1]: 2 to 8 µg/mL; acceptable MIC by NCCLS [2]: 0.5 to 2 µg/mL
CCCCCCCCCCCCCC[N+](C)(C)C.[Br-] [TTMAB, tetradecyltrimethylammonium bromide]	0/10	++ (11-100)	0	5/10	+ (1-10)	0 CFU/ml	0/10	0	0	0/10	0	8/10	+ (1-10)	0 CFU/ml	10/10	+ (1-10)	10/10	++ (11-100)	39 ± 26	24 ± 13	adherence, mean value of attached bacteria ([4]; 5 ug/ml): 37 ± 20; adherence, mean value of attached bacteria ([4]; 50 ug/ml): 28 ± 14; MIC [5]: 60 µg/mL; MIC ([5]; Salmonella enterica): 64 µg/mL; adherence, mean value of attached bacteria ([6]; 25 ug/ml): 91 ± 66; adherence, mean value of attached bacteria ([6]; 50 ug/ml): 53 ± 34; adherence, mean value of attached bacteria ([6]; 75 ug/ml): 72 ± 53; adherence, mean value of attached bacteria ([6]; 100 ug/ml): 42 ± 22 and 26 ± 14; adherence, mean value of attached bacteria ([6]; 175 ug/ml): 28 ± 10; EC50 [6, 8]: 129 ± 3.9 µM; minimal effective concentration ([6]; Salmonella enterica, Epithelial cell, read-out: active concentration, detachment): 25 µg/mL; bacterial viability ([7]; 10 ug/ml): 1.33 ± 0.09 × 10^9 CFU/ml; bacterial viability ([7]; 20 ug/ml): 1.06 ± 0.08 × 10^9 CFU/ml; bacterial viability ([7]; 60 ug/ml): 1.52 ± 2.07 × 10^3 CFU/ml; bacterial viability ([7]; 80 ug/ml): 100 ± 173 CFU/ml; bacterial viability ([7]; 100 ug/ml): 0 CFU/ml; EC50 [7]: 105 ± 0.8 µM
CCCCCCCCCCCC[N+](C)(C)C.[Br-] [DTMAB, dodecyltrimethylammonium bromide]	8/10	+ (1-10)	0	6/10	+ (1-10)	++ (11-100)	0/10	0	0	0/10	0	10/10	+ (1-10)	+ (1-10)	10/10	+ (1-10)	10/10	++ (11-100)	76 ± 43	41 ± 19	Wash H2O, chicken legs producing the notated number of colonies ([3]; 0.1%): 10/10; adherence, mean value of attached bacteria ([4]; 75 ug/ml): 30 ± 18; adherence, mean value of attached bacteria ([4]; 100 ug/ml): 23 ± 18; MIC [5]: 150 µg/mL; MIC ([5]; Salmonella enterica): 156 µg/mL; adherence, mean value of attached bacteria ([6]; 50 ug/ml): 113 ± 85; adherence, mean value of attached bacteria ([6]; 75 ug/ml): 102 ± 59; adherence, mean value of attached bacteria ([6]; 100 ug/ml): 92 ± 58 and 74 ± 56; adherence, mean value of attached bacteria ([6]; 150 ug/ml): 80 ± 59; adherence, mean value of attached bacteria ([6]; 200 ug/ml): 60 ± 43; adherence, mean value of attached bacteria ([6]; 250 ug/ml): 63 ± 35; adherence, mean value of attached bacteria ([6]; 300 ug/ml): 54 ± 35; adherence, mean value of attached bacteria ([6]; 325 ug/ml): 68 ± 39; EC50 [6, 8]: 868 ± 112 µM; bacterial viability ([7]; 10 ug/ml): 1.44 ± 0.07 × 10^9 CFU/ml; bacterial viability ([7]; 100 ug/ml): 1.3 ± 0.03 × 10^9 CFU/ml; bacterial viability ([7]; 200 ug/ml): 8.75 ± 1.28 × 10^8 CFU/ml; bacterial viability ([7]; 350 ug/ml): 800 ± 1300 CFU/ml; bacterial viability ([7]; 1000 ug/ml): 100 ± 100 CFU/ml; EC50 [7]: 730 ± 64 µM
